Results as given in patent publication US10226509B2, “Lymphangiogenesis inhibitors for cancer and for graft survival” (TUFTS UNIVERSITY, priority 2014, dated 2019).

Assays:
Assay type in all cases: cell-based, human
[1] = test system: VEGFR-3; experiment: Cell surface expression of VEGFR-3 by flow cytometry; conditions: Gal-8 0.2 μM or VEGF-C 50 ng/ml
Description: Primary LECs were serum-starved overnight in basal EBM-2 medium. The cells were incubated with or without VEGF-C (50 ng/ml, PeproTech) or Gal-8 (0.2 μM) in serum-free EBM-2 medium for 10 and 30 min. At the end of the incubation period, cells were lifted with StemPro® Accutase® cell dissociation reagent (Invitrogen), washed with PBS and fixed with 4% paraformaldehyde/PBS on ice for 10 min, and were then stained using rat anti-human PDPN (1:500, BioLegend) and mouse anti-human VEGFR-3 (clone 9D9F9) (1:100, BioLegend) primary antibodies in cell staining buffer (BioLegend, 45 min on ice) and Alexa Fluor® 488 donkey anti-rat and Alexa Fluor® 647 anti-mouse secondary antibodies (1:1000, Invitrogen, 30 min on ice). For negative control, the primary antibodies were omitted. The stained cells were fixed with 2% paraformaldehyde/PBS, analyzed with BD FACSCalibur, and the mean fluorescence intensity of VEGFR-3 and PDPN were quantified with the FlowJo software (version 9.5.2).

[2] = test system: AKT; experiment: Western blot of AKT activation in primary LECs; conditions: 0.5 μM for 0 to 60 minutes or 0 to 0.5 μM for 30 minutes
Description: Primary LECs were lysed with Triton lysis buffer supplemented with protease inhibitor cocktail and Phos-STOP phosphatase inhibitor cocktail (Roche), and subjected to electrophoresis in 4-15% SDS-PAGE gels (Bio-Rad). Protein blots of the gels were blocked with 0.5×Odyssey® blocking buffer (OBB, Li-COR). For AKT and ERK signaling, blots were incubated with primary antibodies (rabbit anti-ERK1/2, 1:7500, Cell Signaling Technology; mouse anti-phospho-ERK1/2, Thr202/Tyr204, 1:2000, Cell Signaling Technology; mouse anti-AKT1/2/3, 1:2000, Cell Signaling Technology; rabbit anti-phospho-AKT, Ser473, 1:1500, Cell Signaling Technology) overnight at 4° C. Blots were washed with 0.5% Tween-20/PBS three times, and were incubated with appropriate secondary antibodies (donkey anti-rabbit IRDye 680LT and anti-mouse IRDye 800CW, Li-Cor) for 45 min at 25° C. The blots were scanned by an Odyssey® Infrared Imaging System using Image Studio v2.0 software (Li-COR). […] Signals were detected by Odyssey® Infrared Imaging System. […]

[3] = test system: LEC plasma membrane; experiment: Immunocytochemistry / confocal microscopy of receptor clustering on LECs
Description: […] Cells were blocked with Image-iT® signal enhancer (30 min, 25° C., Invitrogen) and incubated with primary antibodies (rat anti-human PDPN, 1:300, BioLegend; mouse anti-human VEGFR-3, 9D9F9, 1:100, BioLegend; rabbit anti-Gal-8, H-80, 1:100, Santa Cruz Biotechnology) in 2% BSA/PBS at 4° C. overnight. The cells were then washed with 2% BSA/PBS three times and incubated with appropriate secondary antibodies (Alexa Fluor® 488 anti-mouse, 1:200, Invitrogen; Alexa Fluor® 568 anti-rabbit, 1:200, Invitrogen; Alexa Fluor 647® anti-rat, 1:300, Jackson ImmunoResearch) at 25° C. for 1 hr. Cells were washed with PBS, slides were mounted with ProLong Gold antifade reagent with DAPI (Invitrogen) and were examined with the Leica TCS SPE imaging system (Leica).
Since galectin-glycan lattices segregate the cell surface receptors into discrete domains to initiate cell signaling (Lajoie, P., et al. 2009. J Cell Biol 185:381-385), assays were performed to determine whether Gal-8 clusters PDPN and VEGFR-3 on LEC plasma membrane. LECs were treated with Gal-8 for 15 minutes, fixed, stained with anti-PDPN, VEGFR-3 and Gal-8 antibodies, and examined by confocal microscopy. In control cells, which were incubated with buffer only, both PDPN and VEGFR-3 were homogenously distributed all over the LEC and in cell borders; endogenous Gal-8 was mainly distributed in cytosol (FIG. 9A-FIG. 9D). […]

Substance: Gal-8: recombinant galectin-8, tandem-repeat type galectin with two different CRDs
- decrease of cell surface expression of VEGFR-3 [1]: about 10%
- phosphorylation of AKT (in words) [2]: induced phosphorylation of AKT and ERK1/2 in time- and dose-dependent manner
- distribution of PDPN and VEGFR-3 on LECs ([3]; Gal-8 for 15 minutes): caused dramatic redistribution and clustering of PDPN and VEGFR-3 on LEC plasma membrane
- distribution of PDPN and integrin β1 on LECs ([3]; galectin-8 for 15 minutes, no permeabilization): caused dramatic redistribution and clustering of PDPN and integrin β1 on LEC plasma membrane
